Laboratory results as given in US5597822A, “Pharmaceutical compositions for the prevention and/or treatment a gastrointestinal diseases” (Egis Pharmaceutical, priority 1993, dated 1997).
Converted amounts (≈) assume the structure as drawn. Where two headings read alike, the source gives them in different places.

Experiments:
[1] = test system: gastric mucosa lesions induced by absolute ethanol; test: Gastroprotective activity, test with absolute ethanol (gastric mucosa erosions); assay type: in vivo, rat; details: for gastroprotective activity (in words): test with absolute ethanol; for Relative activity related to the inhibition of the free acid: ED50 of gastric acid inhibition (Shay) related to ED50 of inhibition of gastric erosion; for ED50: po
Description: (§1) Rats of both sexes weighing 200 to 250 g, each previously starved for 24 hours, were used in this experiment. The lesions of gastric mucosa were induced by the oral administration of absolute ethanol in a dose of 1 ml/animal. After one hour following the administration, the animals were killed by an overdose of ether, the stomach was excised and the alterations of gastric mucosa were examined. The lengths of the erosions were measured and summarized (expressed in mm) for each stomach to obtain the erosion index by calculating the average value of the group. The inhibition was calculated in percentage by comparing the value of the group treated with ethanol to that of the control group treated only with the vehicle. Various doses of the compounds to be tested were administered, perorally, in a volume of 5 ml/kg using a pretreatment time of 60 minutes. Eight rats were used for each dose. /A. Robert, Gastroenterology 77, 761-767 (1979)/.
^x Relative activity = ED50 value of the gastric acid inhibition
related to the ED50 value of the inhibition of the gastric erosion.

[2] = test system: gastric erosions induced by ethanol containing hydrochloric acid; test: Test with ethanol containing hydrochloric acid (gastric erosions); assay type: in vivo, rat; details: for Inhibition of the erosion index, relative activity: ED50 of cetraxate divided by ED50 of compound tested; for ED50: po, rat, p.o., HCl/absolute ethanol 1 to 50; for Inhibition of the erosion frequency, relative activity: related to cetraxate
Description: as §1
The principle of the method consists in that, simultaneously with the administration of absolute ethanol, hydrochloric acid is introduced to the stomach. Thus, the influence on systemic gastric acid inhibition action can be eliminated by the presence of the exogenous acid.
The reagent used in this test was a mixture of concentrated aqueous hydrochloric acid and absolute ethanol in a mass ratio of 1 to 50 in accordance with the dilution ratio used by Yamazaki et al., see Japan J. Pharmacol., 55, 415-424 (1991). Otherwise, the experiment was performed as described under test 2.1., however, in addition to the erosion index calculated from the lengths of the erosions in mm, the ratio of occurence of animals showing at least one gastric erosion within a test group, i.e. the erosion frequency, was also evaluated.

in vivo = details: mouse, po, NMRI mice, 7 days, "higher than" = highest dose administered without any death
Description: The acute toxicity was determined on NMRI strain mice of both sexes weighing 20 to 25 g each by using 6 animals for each dose. The compounds to be tested were administered perorally in a volume of 20 ml/kg, the highest dose applied was 1000 mg/kg. After the administration the animals were kept under usual laboratory conditions for 7 days.
The data given as "higher than" a certain value mean the highest dose administered without noting any death of animals.

Helicobacter pylori = test: Antibacterial effect on Helicobacter pylori (MIC, blood agar); assay type: cell-based; details: Helicobacter pylori, 72 h
Description: Helicobacter pylori strains used in these experiments were obtained from the biopsial samples of the stomachs of patients suffering from ulcerative diseases of the gastrointestinal system. From the pure culture of isolates a thick suspension was prepared with cysteine-inositol solution suitable for lyophilisation, and the suspension obtained was maintained in cold-resistant plastic ampoules in a deep-freezing chamber at a temperature of about -196 ° C. For the determination of the inhibitory effect of the compounds tested on Helicobacter pylori, blood agar containing 10 mg/liter of vancomycin and 25 mg/liter of amphotericin B was used /C. A. M. McNulty and I. C. Dent: Susceptibility of clinical isolates of Campylobacter pylori to twenty one antimicrobial agents. Book of Abstracts, 4th European Congress of Clinical Microbiology, Nice (1989)/.
The plates containing the strains were cultivated at 37° C. for 72 hours under a gaseous atmosphere containing 10 per cent of carbon dioxide and 5 per cent of oxygen /D. M. Jones et al., J. Clin. Pathol., 37, 1002 (1984)/.
The culture media were inoculated by diluting the broth culture of the strains grown overnight or with a suspension prepared from a culture obtained on a solid medium. About 10^5 of germs were applied to the surface of each plate.
A series of dilution were prepared from the compound to be-tested. The MIC (minimal inhibiting concentration) value of the compounds tested was considered to be the lowest concentration inhibiting the growth of the test organism completely.

[3] = erosion frequency, read-out: Inhibition of the erosion frequency, ED50 p.o.
[4] = erosion index, read-out: Inhibition of the erosion index, ED50 p.o.
[5] = rat, 60 min pretreatment, absolute ethanol 1 ml/animal, erosion index

With “beta-D-fructofuranosyl alpha-D-glucopyranoside hydrogen sulfate basic aluminium salt [sucralfate, reference compound]” the “Gastroprotective activity: test with absolute ethanol, ED50 p.o.” value ([1]; rat, p.o., 60 min pretreatment, absolute ethanol 1 ml/animal, erosion index) was 69.0 mg/kg and the “gastroprotective activity (in words)” value [1] was “nearly identical activity”.
With CN(CC(O)CO/N=C1\CCCC\C1=C/c1ccc(Cl)cc1)C1CCCCC1 (racemic) [Compound D, (R,S)-2-(E)-(4-chlorophenylmethylene)-1-(E)-[3'-(N-methyl-N-cyclohexylamino)-2'-hydroxypropoxyimino]cyclohexane] the “Inhibition of the erosion index, relative activity” value ([2]; erosion index) was 4.2, the ED50 [2, 3] was 8.3 mg/kg and the ED50 [2, 4] was 5.2 mg/kg. The “Inhibition of the erosion frequency, relative activity” value ([2]; erosion frequency) was 22.8, the “Relative activity related to the inhibition of the free acid” value [1] was 32.3 and the ED50 [1, 5] was 2.6 mg/kg. The LD50 at 168 h (in vivo) was > 1000 mg/kg, the MIC (Helicobacter pylori; strain 867/90) was 15.6 µg/mL (≈ 38.5 µM) and the MIC (Helicobacter pylori; strain 1596) was 15.6 µg/mL (≈ 38.5 µM). It also gave an MIC (Helicobacter pylori; strain 3842) of 15.6 µg/mL (≈ 38.5 µM), an MIC (Helicobacter pylori; strain 6656) of 15.6 µg/mL (≈ 38.5 µM) and an MIC (Helicobacter pylori; strain 6709) of 15.6 µg/mL (≈ 38.5 µM).
In the case of CN(C)CC(O)CO/N=C1\CCCC\C1=C/c1ccc(Cl)cc1 (racemic) [Compound G, (R,S)-2-(E)-(4-chlorophenylmethylene)-1-(E)-[(3-dimethylamino-2-hydroxypropoxy)imino]cyclohexane], the ED50 [2, 4] is reported as 15.8 mg/kg, the “Inhibition of the erosion frequency, relative activity” value ([2]; erosion frequency) is reported as 3-6 and the “Relative activity related to the inhibition of the free acid” value [1] is reported as 60-125. For the same compound, the MIC (Helicobacter pylori; strain 867/90) was 31.2 µg/mL (≈ 92.6 µM), the MIC (Helicobacter pylori; strain 1596) was 125 µg/mL (≈ 371 µM) and the MIC (Helicobacter pylori; strain 3842) was 62.5 µg/mL (≈ 186 µM). For the same compound, the MIC (Helicobacter pylori; strain 6656) was 31.2 µg/mL (≈ 92.6 µM) and the MIC (Helicobacter pylori; strain 6709) was 125 µg/mL (≈ 371 µM).
With COc1ccccc1/C=C1\CCCC\C1=N/OCC(O)CN1CCN(c2ccccc2OC)CC1 (racemic) [Compound H, (R,S)-2-(E)-(2-methoxyphenylmethylene)-1-(E)-{3-[4-(2-methoxyphenyl)-1-piperazinyl]-2-hydroxypropoxyimino}cyclohexane] the “Inhibition of the erosion index, relative activity” value ([2]; erosion index) was 0.4-0.7, the ED50 [2, 3] was > 60 mg/kg and the ED50 [2, 4] was 30 to 60 mg/kg. For the same compound, the “Inhibition of the erosion frequency, relative activity” value ([2]; erosion frequency) was < 3, the “Relative activity related to the inhibition of the free acid” value [1] was “higher than 20.0” and the ED50 [1, 5] was 9.5 mg/kg.
For CCCCNCC(O)CO/N=C1\CCCC\C1=C/c1ccc(Cl)c(Cl)c1 (racemic) [Compound A, (R,S)-2-(E)-(3,4-dichlorophenylmethylene)-1-(E)-[(3-butylamino-2-hydroxypropoxy)imino]cyclohexane], the “Inhibition of the erosion index, relative activity” value ([2]; erosion index) was 3.1, the ED50 [2, 3] was 18.8 mg/kg and the ED50 [2, 4] was 7.1 mg/kg. For the same compound, the “Inhibition of the erosion frequency, relative activity” value ([2]; erosion frequency) was 10.1, the “Relative activity related to the inhibition of the free acid” value [1] was 60.5 and the ED50 [1, 5] was 2 mg/kg. For the same compound, the LD50 at 168 h (in vivo) was > 1000 mg/kg.
With CCCCNCC(O)CO/N=C1\CCCC\C1=C/c1ccc(Cl)cc1 (racemic) [Compound L, (R,S)-2-(E)-(4-chlorophenylmethylene)-1-(E)-[(3-butylamino-2-hydroxypropoxy)imino]cyclohexane] the “Inhibition of the erosion index, relative activity” value ([2]; erosion index) was 2.2, the ED50 [2, 3] was 30 to 60 mg/kg and the ED50 [2, 4] was 9.8 mg/kg. For the same compound, the “Inhibition of the erosion frequency, relative activity” value ([2]; erosion frequency) was 3-6, the “Relative activity related to the inhibition of the free acid” value [1] was 18.3 and the ED50 [1, 5] was 7.6 mg/kg. It also gave an LD50 at 168 h (in vivo) of 1300 mg/kg.
In the case of CCCCCCNCC(O)CO/N=C1\CCCC\C1=C/c1ccc(Cl)cc1 (racemic) [Compound F, (R,S)-2-(E)-(4-chlorophenylmethylene)-1-(E)-[(3-hexylamino-2-hydroxypropoxy)imino]-cyclohexane], the ED50 [2, 4] is reported as 7.2 mg/kg and the LD50 at 168 h (in vivo) is reported as > 1000 mg/kg.
For CCCCCCNCC(O)CO/N=C1\CCCC\C1=C/c1ccccc1 (racemic) [Compound C, (R,S)-2-(E)-(phenylmethylene)-1-(E)-[(3-hexylamino-2-hydroxypropoxy)imino]cyclohexane], the ED50 [2, 4] was 11.5 mg/kg, the LD50 at 168 h (in vivo) was > 1000 mg/kg and the MIC (Helicobacter pylori; strain 867/90) was 3.9 µg/mL (≈ 10.9 µM). For the same compound, the MIC (Helicobacter pylori; strain 1596) was 7.8 µg/mL (≈ 21.8 µM), the MIC (Helicobacter pylori; strain 3842) was 3.9 µg/mL (≈ 10.9 µM) and the MIC (Helicobacter pylori; strain 6656) was 3.9 µg/mL (≈ 10.9 µM). For the same compound, the MIC (Helicobacter pylori; strain 6709) was 3.9 µg/mL (≈ 10.9 µM).
For CN1CCN(CC(=O)N2c3ccccc3C(=O)Nc3cccnc32)CC1 [pirenzepine, reference compound], the “gastroprotective activity (in words)” value [1] was “low gastroprotective action in a rather high dose”.
In the case of CNC(=NC#N)NCCSCc1nc[nH]c1C [cimetidine, 2-cyano-1-methyl-3-[2-[[(5-methyl-4-imidazolyl)-methyl]thio]ethyl]guanidine, reference compound], the “gastroprotective activity (in words)” value [1] is reported as “low gastroprotective action in a rather high dose”.
In the case of CN(C)CCCNCC(O)CO/N=C1\CCCC\C1=C/c1ccccc1 (racemic) [Compound M, (R,S)-2-(E)-(phenylmethylene)-1-(E)-{[3-(3-dimethylamino-1-propylamino)-2-hydroxypropoxy]imino}cyclohexane], the “Inhibition of the erosion index, relative activity” value ([2]; erosion index) is reported as 1.3, the ED50 [2, 3] is reported as 30 to 60 mg/kg and the ED50 [2, 4] is reported as 17.5 mg/kg. The “Inhibition of the erosion frequency, relative activity” value ([2]; erosion frequency) was 3-6, the “Relative activity related to the inhibition of the free acid” value [1] was “about 6.7” and the ED50 [1, 5] was 29.9 mg/kg.
In the case of CCCN(CCC)CC(O)CO/N=C1\CCCC\C1=C/c1ccc(Cl)c(Cl)c1 (racemic) [Compound B, (R,S)-2-(E)-(3,4-dichlorophenylmethylene)-1-(E)-[(3-dipropylamino-2-hydroxypropoxy)imino]cyclohexane], the “Inhibition of the erosion index, relative activity” value ([2]; erosion index) is reported as 1.7, the ED50 [2, 3] is reported as 20.1 mg/kg and the ED50 [2, 4] is reported as 12.7 mg/kg. The “Inhibition of the erosion frequency, relative activity” value ([2]; erosion frequency) was 6.4, the “Relative activity related to the inhibition of the free acid” value [1] was 12.5 and the ED50 [1, 5] was 12.6 mg/kg. For the same compound, the LD50 at 168 h (in vivo) was > 1000 mg/kg.
With CC(C)NCC(O)CO/N=C1\CCCC\C1=C/c1ccc(Br)cc1 (racemic) [Compound K] the “Inhibition of the erosion index, relative activity” value ([2]; erosion index) was 1.9, the ED50 [2, 3] was 15 to 30 mg/kg and the ED50 [2, 4] was 11.4 mg/kg. For the same compound, the “Inhibition of the erosion frequency, relative activity” value ([2]; erosion frequency) was 6-12, the “Relative activity related to the inhibition of the free acid” value [1] was “about 17.9” and the ED50 [1, 5] was 6.7 mg/kg.
With C=CCNCC(O)CO/N=C1\CCCC\C1=C/c1ccc(Cl)cc1 (racemic) [Compound I, (R,S)-2-(E)-(4-chlorophenylmethylene)-1-(E)-[(3-propenylamino-2-hydroxypropoxy)imino]cyclohexane] the “Inhibition of the erosion index, relative activity” value ([2]; erosion index) was 2.6, the ED50 [2, 3] was 39.2 mg/kg and the ED50 [2, 4] was 8.6 mg/kg. The “Inhibition of the erosion frequency, relative activity” value ([2]; erosion frequency) was 4.8, the “Relative activity related to the inhibition of the free acid” value [1] was “higher than 10.0” and the ED50 [1, 5] was 8.4 mg/kg.
In the case of OC(CNC1CCCCC1)CO/N=C1\CCCC\C1=C/c1ccc(Cl)cc1 (racemic) [Compound E, (R,S)-2-(E)-(4-chlorophenylmethylene)-1-(E)-[(3-cyclohexylamino-2-hydroxypropoxy)imino]cyclohexane], the ED50 [2, 4] is reported as 10.3 mg/kg, the “Inhibition of the erosion frequency, relative activity” value ([2]; erosion frequency) is reported as 3-6 and the LD50 at 168 h (in vivo) is reported as > 1000 mg/kg.
For COc1ccc2nc([S+]([O-])Cc3ncc(C)c(OC)c3C)[nH]c2c1 (centres unmarked) [omeprazole, 5-methoxy-2-[[(4-methoxy-3,5-dimethyl-2-pyridyl)methyl]sulfinyl]benzimidazole, reference compound], the “gastroprotective activity (in words)” value [1] was “low gastroprotective action in a rather high dose” and the LD50 at 168 h (in vivo) was > 4000 mg/kg.
For CC(C)N(CC(O)CO/N=C1\CCCC\C1=C/c1ccc(Cl)cc1)C(C)C (racemic) [Compound J, (R,S)-2-(E)-(4-chlorophenylmethylene)-1-(E)-[(3-diisopropylamino-2-hydroxypropoxy)imino]cyclohexane], the “Inhibition of the erosion index, relative activity” value ([2]; erosion index) was 3.7, the ED50 [2, 3] was 19.1 mg/kg and the ED50 [2, 4] was 5.9 mg/kg. The “Inhibition of the erosion frequency, relative activity” value ([2]; erosion frequency) was 9.9, the “Relative activity related to the inhibition of the free acid” value [1] was “about 25.0” and the ED50 [1, 5] was 7 mg/kg.
